Measurements from patent US20260294922A1, “Inhibitors of JUN N-Terminal Kinases (JNK1, JNK2, and/or JNK3) and Mitogen-Activated Protein Kinases (MAPK8, MAPK9, and/or MAPK10) and Methods of Using Same” (Baylor College of Medicine, priority 2023, published 2026).
≈ marks a conversion by molar mass, not a printed value. Entries after “also recorded” stand apart in the source; their conditions may differ.

Tests used:
JNK1 [1] = target: T1, JNK1 (Homo sapiens, UniProt P45983); experiment: JNK1 kinase (intrinsic ATPase, Kinase-Glo) assay; format: biochemical
T1 sequence (P45983 whole entry): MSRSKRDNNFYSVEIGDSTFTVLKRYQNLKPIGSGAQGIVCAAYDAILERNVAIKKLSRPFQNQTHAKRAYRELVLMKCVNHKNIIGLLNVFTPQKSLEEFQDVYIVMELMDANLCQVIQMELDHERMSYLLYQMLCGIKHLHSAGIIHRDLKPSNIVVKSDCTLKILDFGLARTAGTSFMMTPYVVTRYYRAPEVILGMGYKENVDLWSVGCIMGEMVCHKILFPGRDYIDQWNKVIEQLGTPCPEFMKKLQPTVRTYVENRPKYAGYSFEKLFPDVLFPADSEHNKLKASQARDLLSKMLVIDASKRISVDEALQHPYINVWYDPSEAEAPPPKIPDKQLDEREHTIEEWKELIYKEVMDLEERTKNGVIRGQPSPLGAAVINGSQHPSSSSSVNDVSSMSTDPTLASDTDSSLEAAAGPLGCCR
Procedure: JNK1, JNK2, and JNK3 hydrolyze ATP to ADP without any peptide substrates. This allows a very robust and fast endpoint assay where the remaining concentration of ATP is measured (BMG ClarioStar Plus plate reader) using the Kinase-Glo Assay kit from Promega (V6711). A luminescence signal is measured, which is produced by the catalytic conversion of beetle luciferin to oxyluciferin by luciferase. Potential inhibition of luciferase (i.e., false negatives) is easily detected, because assays without kinase are always included, and less ATP than is present in this control reaction could also indicate an inhibition of luciferase, which can be excluded by a counter screen with only luciferase.
To mitigate violation of the linear initial velocity principle, which is a problem in end-point assays when doing dose-responses, the enzyme concentration was carefully optimized, in a total assay volume of 25 μL. […] The kinase reaction was done for 30 or 60 min at 30° C., and detection of leftover ATP was measured according to Promega's protocol. […] Fractional activities were obtained from normalized data. Non-linear regression (GraphPad Prism7) and a modified Morrison equation for tight binding was used to determine apparent Ki values for inhibitors, assuming no particular mode of inhibition. An orthogonal binding assay (LanthaScreen) was outsourced to ThermoFisher Scientific's SelectScreen Services to determine IC50 values.

JNK2 [2] = target: T2, JNK2 (Homo sapiens, UniProt P45984); experiment: JNK2 kinase (intrinsic ATPase, Kinase-Glo) assay; format: biochemical; settings: Table 3a; read-out: Kd JNK2
T2 sequence (P45984 whole entry): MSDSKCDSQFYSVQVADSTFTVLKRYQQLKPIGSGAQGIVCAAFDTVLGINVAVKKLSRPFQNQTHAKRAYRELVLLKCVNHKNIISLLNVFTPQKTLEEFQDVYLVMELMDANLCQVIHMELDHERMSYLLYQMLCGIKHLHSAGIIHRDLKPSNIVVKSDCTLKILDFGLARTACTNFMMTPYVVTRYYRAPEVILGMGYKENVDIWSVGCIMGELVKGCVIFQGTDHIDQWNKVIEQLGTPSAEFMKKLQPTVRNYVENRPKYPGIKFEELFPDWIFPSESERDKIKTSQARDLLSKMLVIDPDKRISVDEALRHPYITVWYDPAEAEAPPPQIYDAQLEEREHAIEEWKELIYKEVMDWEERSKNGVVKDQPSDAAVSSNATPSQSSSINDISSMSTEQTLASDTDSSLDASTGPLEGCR

JNK3 [3] = target: T3, JNK3 (Homo sapiens, UniProt P53779); experiment: JNK3 kinase (intrinsic ATPase, Kinase-Glo) assay; format: biochemical; settings: Table 3a; read-out: Kd JNK3
T3 sequence (P53779 whole entry): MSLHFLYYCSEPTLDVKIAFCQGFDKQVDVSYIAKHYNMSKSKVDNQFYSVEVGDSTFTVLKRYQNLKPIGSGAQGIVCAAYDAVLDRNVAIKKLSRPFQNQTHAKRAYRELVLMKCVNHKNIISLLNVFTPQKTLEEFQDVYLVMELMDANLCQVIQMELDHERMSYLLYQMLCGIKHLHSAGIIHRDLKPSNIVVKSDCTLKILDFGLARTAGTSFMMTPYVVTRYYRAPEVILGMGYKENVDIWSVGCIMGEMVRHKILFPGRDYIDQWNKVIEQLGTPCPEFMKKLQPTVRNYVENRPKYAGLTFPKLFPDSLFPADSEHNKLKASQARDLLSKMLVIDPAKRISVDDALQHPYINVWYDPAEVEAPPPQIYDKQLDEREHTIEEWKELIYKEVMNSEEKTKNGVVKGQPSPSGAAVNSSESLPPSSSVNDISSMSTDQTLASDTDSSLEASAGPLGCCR

CSNK1E = target: T4, CSNK1E (Homo sapiens, UniProt P49674); experiment: ThermoFisher SelectScreen, CSNK1E; format: binding
T4 construct: purchased ThermoFisher (SelectScreen)
T4 sequence (P49674 whole entry): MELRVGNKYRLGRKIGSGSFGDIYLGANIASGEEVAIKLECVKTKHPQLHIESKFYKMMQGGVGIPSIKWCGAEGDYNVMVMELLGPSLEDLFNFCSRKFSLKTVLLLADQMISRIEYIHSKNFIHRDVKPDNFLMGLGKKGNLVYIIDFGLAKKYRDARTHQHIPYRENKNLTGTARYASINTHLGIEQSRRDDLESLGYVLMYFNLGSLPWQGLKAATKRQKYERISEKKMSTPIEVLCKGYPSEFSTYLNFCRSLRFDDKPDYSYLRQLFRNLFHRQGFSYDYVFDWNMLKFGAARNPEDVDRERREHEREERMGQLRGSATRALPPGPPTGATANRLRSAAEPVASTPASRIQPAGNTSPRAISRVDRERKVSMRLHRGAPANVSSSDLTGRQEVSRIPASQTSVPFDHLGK

MEK4 = target: T5, MEK4 (Homo sapiens, UniProt P45985); experiment: ThermoFisher SelectScreen, MEK4; format: binding
T5 construct: purchased ThermoFisher (SelectScreen)
T5 sequence (P45985 1-399): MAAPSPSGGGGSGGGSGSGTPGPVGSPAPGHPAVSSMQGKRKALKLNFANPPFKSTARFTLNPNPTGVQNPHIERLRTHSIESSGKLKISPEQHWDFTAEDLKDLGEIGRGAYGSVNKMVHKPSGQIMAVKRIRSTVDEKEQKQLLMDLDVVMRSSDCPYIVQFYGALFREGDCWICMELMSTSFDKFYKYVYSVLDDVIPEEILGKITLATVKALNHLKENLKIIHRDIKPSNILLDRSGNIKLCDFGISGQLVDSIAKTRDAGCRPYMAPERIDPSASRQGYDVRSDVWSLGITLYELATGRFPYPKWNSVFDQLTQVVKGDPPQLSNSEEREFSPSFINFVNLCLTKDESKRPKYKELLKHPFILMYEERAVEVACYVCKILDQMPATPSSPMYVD

hVPS34 = target: T6, hVPS34 (Homo sapiens, UniProt Q8NEB9); experiment: ThermoFisher SelectScreen, hVPS34; format: binding; settings: Table 4
T6 construct: purchased ThermoFisher (SelectScreen, outsourced service)
T6 sequence (Q8NEB9 whole entry): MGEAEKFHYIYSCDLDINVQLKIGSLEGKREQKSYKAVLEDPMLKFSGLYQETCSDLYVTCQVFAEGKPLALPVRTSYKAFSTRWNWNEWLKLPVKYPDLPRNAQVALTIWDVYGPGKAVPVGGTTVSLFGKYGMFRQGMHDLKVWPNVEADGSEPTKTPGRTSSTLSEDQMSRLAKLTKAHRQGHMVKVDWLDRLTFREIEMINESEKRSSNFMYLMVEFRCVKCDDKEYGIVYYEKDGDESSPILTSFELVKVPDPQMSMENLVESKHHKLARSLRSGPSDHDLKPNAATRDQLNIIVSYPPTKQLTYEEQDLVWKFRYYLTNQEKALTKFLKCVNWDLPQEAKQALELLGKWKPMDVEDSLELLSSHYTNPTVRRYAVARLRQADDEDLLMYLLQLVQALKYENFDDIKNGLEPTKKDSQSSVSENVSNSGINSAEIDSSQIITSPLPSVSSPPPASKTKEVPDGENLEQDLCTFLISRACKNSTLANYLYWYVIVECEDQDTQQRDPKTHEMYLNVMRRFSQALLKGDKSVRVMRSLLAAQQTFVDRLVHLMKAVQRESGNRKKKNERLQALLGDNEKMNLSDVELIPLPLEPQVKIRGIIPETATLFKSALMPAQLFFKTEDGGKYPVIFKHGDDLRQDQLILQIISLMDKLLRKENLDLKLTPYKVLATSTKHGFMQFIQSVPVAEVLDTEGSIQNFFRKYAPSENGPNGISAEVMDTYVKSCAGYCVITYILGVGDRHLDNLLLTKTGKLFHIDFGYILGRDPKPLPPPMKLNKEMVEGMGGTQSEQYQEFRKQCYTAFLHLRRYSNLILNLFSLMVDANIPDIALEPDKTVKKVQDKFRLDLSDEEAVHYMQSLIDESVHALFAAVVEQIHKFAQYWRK
Procedure: To mitigate violation of the linear initial velocity principle, which is a problem in end-point assays when doing dose-responses, the enzyme concentration was carefully optimized, in a total assay volume of 25 μL. The assay was performed using 10 μM ATP, 0.02% Tween-20, kinase buffer from Cell Signaling (#9802) in white 384-well plates. The kinase reaction was done for 30 or 60 min at 30° C., and detection of leftover ATP was measured according to Promega's protocol. […] Fractional activities were obtained from normalized data. Non-linear regression (GraphPad Prism7) and a modified Morrison equation for tight binding was used to determine apparent Ki values for inhibitors, assuming no particular mode of inhibition. An orthogonal binding assay (LanthaScreen) was outsourced to ThermoFisher Scientific's SelectScreen Services to determine IC50 values.
One of the earliest compounds to be synthesized with favorable enzymatic activity towards JNK1 and JNK3 was CDD-2346. A KINOMEscan was performed for CDD-2346 to establish whether the selectivity of this chemical scaffold was suitable or required optimization. […] To confirm that the activity against each kinase was a true result and not a false positive, CDD-2346 was evaluated in kinase assays using ThermoFisher SelectScreen platform. The results from these assays are provided herein (Table 4). The important innovative steps described are the optimization of selectivity a) for JNK isoforms; b) for kinases considered “in-pathway”; and c) to avoid kinases considered “out-of-pathway”.

JNK3 [4] = target: T3, JNK3; experiment: ThermoFisher SelectScreen, JNK3; format: binding
JNK1 [5] = target: T1, JNK1; experiment: Promega NanoBRET intracellular target engagement (tracer K10 displacement), JNK1; format: cell-based
JNK2 [6] = target: T2, JNK2; experiment: Promega NanoBRET intracellular target engagement (tracer K10 displacement), JNK2; format: cell-based
JNK3 [7] = target: T3, JNK3; experiment: Promega NanoBRET intracellular target engagement (tracer K10 displacement), JNK3; format: cell-based
[8] = In vitro metabolism in mouse liver microsomes; settings: mouse, microsomes
Procedure: (§1) The target product profile seeks to deliver JNK inhibitor as a once daily oral administration. To prioritize compounds for further development, in vitro metabolism of several CDD JNK inhibitors were determined to approximate the plasma half-life and the rate of metabolism of the compounds in vivo.

[9] = In vitro metabolism in human liver microsomes; settings: human, microsomes
Procedure: as §1

[10] = test system: 12Z endometriotic epithelial cells; experiment: IL-1β-stimulated pro-inflammatory gene expression (qPCR) in 12Z cells; format: cell-based, human; settings: relative to bentamapimod
From the text: These studies indicate that NanoBRET assays are an innovative technical platform to measure target engagement of CDD JNK inhibitors with the target JNK1, JNK2 or JNK3. As further evidence that JNK inhibitors address disease-relevant endpoints, biological responses of JNK inhibitors are provided herein, as measured in target tissue cellular models. 12Z immortalized endometriotic epithelial cells and patient-derived endometriotic stromal cells have been cultured with reference compound bentamapimod, CDD-2628, and CDD-2728. To exemplify the effects of CDD-2628 and CDD-2728 in the endometrial cell cultures, gene expression was measured using qPCR (expressed as fold-change relative to GAPDH, a housekeeping gene that is not affected by culture treatment effects) that reflect synthesis of inflammatory lipids (PTGS2), transformation of cells to a more migration and invasive potential (MMP-3) and chemoattractant cytokines to recruit pro-inflammatory immune cells (IL-6, IL-8).
In the culture systems employed in FIGS. 12A-12J, FIGS. 13A-13B, FIGS. 14A-14H, FIGS. 15A-15H, and FIGS. 16A-16F, the treatment of cells with IL-1β is used to mimic the peritoneal environment where IL-1β is most frequently measured at higher concentrations in patients with endometriosis (0.1 ng/mL-1 ng/mL) than in unaffected women (<0.01 ng/mL). The use of IL-1β to mimic the pro-inflammatory environment is a common method in cellular assays for endometriosis research. Although the concentrations of IL-1β in these cell cultures are higher than measured in peritoneal fluid, there are multiple other pro-inflammatory cytokines in peritoneal fluid that contribute to the pro-inflammatory environment.
Specifically, 12Z cells were plated at a density of 1×10^5 cells/well in a 12-well tissue culture plate, serum-starved overnight (17-18 h), pre-treated with vehicle (DMSO) or JNK inhibitor for 30 minutes, then stimulated with 10 ng/ml IL-1β in the presence or absence of the JNK inhibitors for 6 hours. After the 6-hour treatment, mRNA was extracted from the cells using the Qiagen RNEasy mini isolation kit and […] of mRNA was reverse transcribed into cDNA using the qScript cDNA Supermix (Quanta Biosciences). cDNA was amplified using SYBR Green Master Mix (Applied Biosystems) with quantitative Real Time PCR (BioRad CFX) using pre-designed and validated primers specific for genes encoding IL6, IL8, PTGS2/COX2, and MMP3 (BioRad). Relative quantification of these specific genes was calculated by the ΔΔCt method, normalizing their abundance relative to the internal housekeeping gene, GAPDH, followed by quantification relative to the vehicle-treated cells. Statistical analyses and visualizations were performed using a One Way ANOVA with a Tukey's multiple comparison post-hoc test on GraphPad Prism version 9.

[11] = test system: immortalized human endometriotic epithelial cells (iHEEC); experiment: Phosphorylation of JNK and Jun in iHEEC; format: cell-based
From the text: FIG. 26A depicts the effects of CDD-2728 and CDD-3013 on phosphorylation of the JNK enzyme itself (i.e., representing MEK4 inhibition) and phosphorylation of pSer63 and pSer73 on the transcription factor Jun in immortalized human endometriotic epithelial cells (iHEEC). The HEEC cells are a well characterized cell line that are relevant for the evaluation of inflammatory endpoints and measures of epithelial-to-mesenchymal transitions (EMT). […] This is consistent with the potency relationships of CDD-2728 relative to bentamapimod observed in cytokine gene expression described above in iHEEC cells and primary human stromal endometriotic cells. […] SP600125 has been frequently described as a poorly-selective JNK-I but in this context provides additional confirmation of inhibition of the JNK target kinase for CDD-2728. […] This adds further support to the critical role of JNK-1 to the therapeutic effect of the JNK inhibitors of the disclosure.

SMILES | Kd (JNK1 [1]) [µM] | Kd (JNK2 [2]) [µM] | Kd (JNK3 [3]) [µM] | Kd (CSNK1E) [µM] | Kd (MEK4) [µM] | Kd (hVPS34) [µM] | Kd (JNK3 [4]) [µM] | IC50 (JNK1 [5]) [µM] | IC50 (JNK2 [6]) [µM] | IC50 (JNK3 [7]) [µM] | half-life [8] [h] | half-life [9] [h] | solubility (Solubility) [µM] | IL-6 expression [10] | IL-8 expression [10] | MMP-3 expression [10] | PTGS2 expression [10] | phosphorylation of JNK1 (P46) and JNK2 (P54) [11] | phosphorylation of Jun at pSer63 and pSer73 [11]
CNCc1ccc(NC(=O)c2ccn3ncc(-c4cncc5ccccc45)c3c2)cc1 [CDD-2347, 3-(isoquinolin-4-yl)-N-(4-((methylamino)methyl)phenyl)pyrazolo[1,5-a]pyridine-5-carboxamide] | 0.00039 ± 0.00011 | 0.0017 ± 0.00012 | 0.00138 ± 0.00021 | 3.18 | 0.483 | 0.776 | 0.00138 | 2.2 | 0.99 | 2 | 0.552 | 0.505 | 134 (≈ 54.7 µg/mL) |  |  |  |  |  | 
O=C(Nc1cncnc1)c1cc2c(-c3cnc4[nH]ccc4c3)cccc2s1 [CDD-3015, N-(pyrimidin-5-yl)-4-(1H-pyrrolo[2,3-b]pyridin-5-yl)benzo[b]thiophene-2-carboxamide] | 0.00234 ± 0.0003 | 0.00684 ± 0.00081 | 0.00318 ± 0.00014 |  |  |  |  | 3.5 | 3.2 | 8.2 | 0.773 | 3.57 | 0.3 (≈ 0.111 µg/mL) |  |  |  |  |  | 
Oc1c2ccccc2c2c3c(cccc13)N=N2 [SP600125, reference compound] |  |  |  |  |  |  |  |  |  |  |  |  |  |  |  |  |  | MEK4-dependent phosphorylation of JNK1 and JNK2 | inhibits pSer63 and pSer73 Jun

Continued, in another order:

Kd (JNK1 [1]) [µM] | Kd (JNK2 [2]) [µM] | Kd (JNK3 [3]) [µM] | Kd (CSNK1E) [µM] | Kd (MEK4) [µM] | Kd (hVPS34) [µM] | Kd (JNK3 [4]) [µM] | IC50 (JNK1 [5]) [µM] | IC50 (JNK2 [6]) [µM] | IC50 (JNK3 [7]) [µM] | half-life [8] [h] | half-life [9] [h] | solubility (Solubility) [µM] | SMILES | IL-6 expression [10] | IL-8 expression [10] | MMP-3 expression [10] | PTGS2 expression [10] | phosphorylation of JNK1 (P46) and JNK2 (P54) [11] | phosphorylation of Jun at pSer63 and pSer73 [11]
0.00183 ± 0.00026 | 0.0016 ± 0.00017 | 0.00052 ± 5e-05 |  |  |  |  | 0.5 | 0.52 | 0.566 | 0.677 | 1.64 | 7.4 (≈ 3.48 µg/mL) | COc1ccc(NC(=O)c2cc3c(-c4cnc5[nH]ccc5c4)cccc3s2)cc1C(=O)N(C)C [CDD-2628, N-(3-(dimethylcarbamoyl)-4-methoxyphenyl)-4-(1H-pyrrolo[2,3-b]pyridin-5-yl)benzo[b]thiophene-2-carboxamide] | concentration-dependent decreases | improved potency; also recorded: more effective than bentamapimod | improved potency; also recorded: more effective than bentamapimod | concentration-dependent decreases |  | 
0.00029 ± 0.00013 | 0.00181 ± 0.00019 | 0.00262 ± 0.00028 |  |  |  |  | 0.172 | 0.161 | 0.119 | 0.983 | 1.36 | 1.1 (≈ 0.546 µg/mL) | O=C(Nc1ccc(O)c(C(=O)N2CCCCC2)c1)c1cc2c(-c3cnc4[nH]ccc4c3)cccc2s1 [CDD-2634, N-(4-hydroxy-3-(piperidine-1-carbonyl)phenyl)-4-(1H-pyrrolo[2,3-b]pyridin-5-yl)benzo[b]thiophene-2-carboxamide] |  | more potent inhibitors of IL-8 expression than bentamapimod |  |  |  | 
0.00027 ± 8e-05 | 0.00314 ± 0.00033 | 0.00103 ± 7e-05 |  |  |  |  | 1 | 1.1 | 2.2 | 0.925 | 3.75 | 3.8 (≈ 1.74 µg/mL) | CN(C)C(=O)c1cc(NC(=O)c2nc3c(-c4cnc5[nH]ccc5c4)cccc3s2)ccc1O [CDD-2856, N-(3-(dimethylcarbamoyl)-4-hydroxyphenyl)-4-(1H-pyrrolo[2,3-b]pyridin-5-yl)benzo[d]thiazole-2-carboxamide] |  |  |  |  | inhibits the upstream phosphorylation of JNK1 and JNK2 | inhibits phosphorylation more effectively than Tanzisertib
0.00058 ± 8e-05 | 0.00574 ± 0.0005 | 0.00292 ± 0.00021 |  |  |  |  | 0.789 | 0.738 | 0.96 | 1.02 | 2.93 | 0.4 (≈ 0.187 µg/mL) | O=C(Nc1ccc(O)c(C(=O)N2CCC2)c1)c1cc2c(-c3cnc4[nH]ccc4c3)cccc2s1 [CDD-3014, N-(3-(azetidine-1-carbonyl)-4-hydroxyphenyl)-4-(1H-pyrrolo[2,3-b]pyridin-5-yl)benzo[b]thiophene-2-carboxamide] |  |  |  |  |  | 
